In US20070077583A1, “Alpha enolase-directed diagnostics and therapeutics for cancer and chemotherapeutic drug resistance” (Aurelium BioPharma, Inc., priority 2005, published 2007):

Key:
A549 cells = test: MTT cytotoxicity assay, A549 cells transfected with α-enolase siRNA; conditions: A549 cells
Protocol: Small interfering RNA transfected cells were seeded in triplicate into 96-well plates at 5×10^3 cells/well 48 hrs post-transfection. The cells were incubated for an additional 16-24 hrs before they were exposed to increasing concentrations of cytotoxic drugs. […] Appropriate dilutions were made in the respective media for each cell line. Following addition of drugs, incubation was continued for an additional 72 hrs. Twenty-five ml of MTT dye (5 mg/ml) were added into each well and the plate was further incubated at 37° C. for 4 hrs. The dye was solubilized with 10% Triton X-100, 0.01 N HCl and further incubated at 37° C. in the dark for 30 min. Cell viability was determined by measure of absorption at 570 nm in a Wallac multiwell plate reader (PerkinElmer, Inc., Boston, Mass.). The averages of triplicate wells were plotted using the Prism software (GraphPad Software, Inc., San Diego, Calif.).
To investigate if α-enolase is broadly involved in mediating drug resistance to microtubule targeting agents, non-small cell lung cancer cell lines A549 and H460, respectively, were transfected with α-enolase siRNA and enolase expression and viability were assessed.

α-enolase = test: Western blot of α-enolase protein expression after siRNA transfection; assay type: cell-based, human; conditions: for reduction of α-enolase expression: A549 cells; for decrease of levels of expression of α-enolase: MDA-MB-435 cells
Protocol: Western blot analysis utilizing anti-α-enolase antibodies was performed on MOLT4 cell extracts fractionated on SDS-PAGE (FIG. 3). Cells extract were prepared according to the protocol detailed in Example 1. […] Resolved proteins were electrophoretically transferred onto nitrocellulose membranes (Hybond, Amercham Pharmacia Biotech) for 1 hour. […] After blocking the membranes with 5% non-fat milk in 1×PBS overnight at 4° C., all antibody-binding reactions were performed in 5% non-fat milk in 1×PBS for 2 hours at room temperature for primary antibodies and for 1 hour for secondary antibodies coupled to HRP. The signal was detected by the Supersignal west Pico chemiluminescent substrate (Pierce, Rockford, Ill., USA). Two polyclonal antibodies against α-enolase were used: a goat antibody against human α-enolase (Santa Cruz Biotechology, Inc., Santa Cruz, Calif.); rabbit polyclonal antibody against human α-enolase (NNE) (MorphoSys AG, Munich, Del.). Membranes were subsequently blotted with anti-GAPDH (Novus Biologicals, Inc., Littleton, Colo.) or anti-prohibitin mouse monoclonal antibody (Lab Vision Corp., Fremont, Calif.) as controls for protein loading. To establish the importance of α-enolase to the expression of the drug-resistant phenotype in cell lines, α-enolase expression was silenced using RNAi. Briefly, the following siRNA duplexes targeting the human α-enolase mRNA were designed and purchased either from Ambion (Austin, Tex.) or Invitrogen (Carlsbad, Calif.). […] [NT] ID NO: 2) targeting the mRNA sequence corresponding to nucleotides […] from the start of the transcript (Ref Seq ID number: NM-001428). […] In another tube, […] of Oligofectamine reagent (Invitrogen, Carlsbad, Calif.) is mixed with […] of Opti-MEM. The two solutions are combined and mixed gently by inversion and incubated for 20 min. at RT. […] The next day the transfected cells were trypsinized and seeded in 6 or 96-well plates and further incubated for the indicated amount of time (assay dependent) before further analysis.

MCF-7/ADR xenografts = MCF-7/ADR xenografts in nude mice; assay type: in vivo; conditions: 3 μg daily for 16 days, with chemotherapeutic drugs
Protocol: In further studies, the efficacy of a α-enolase-targeted therapeutic in treating an MDR mammary adenocarcinoma cells (MCF/AR) is assessed. Briefly, male […] nude mice 5-7 weeks old, weighing 18 g-22 g are used for the MCF-7/ADR xenografts. Mice receive a subcutaneous (s.c.) injection of the cells using 5×10^5 cells/inoculation under the shoulder. When the s.c. tumor is approximately 5.5 mm in size, mice are randomized into treatment groups of 4 including controls and groups receiving taxol or doxorubicin, alone (4 mg/kg), intraperitoneally (i.p.) every 2 days, α-enolase siRNA alone (3 μg daily for 16 days), or both taxol and α-enolase siRNA (3 μg daily for 16 days for each treatment). […] The animal's weight is measured every 4 days. Tumor growth starting on the first day of treatment is measured and the volume of the xenograft is monitored every 4 days. The mice are anaesthetized and sacrificed when the mean tumor weight is over 1 g in the control group. Tumor tissue is excised from the mice and its weight is measured. […]
In further studies, the efficacy of a α-enolase-targeted therapeutic in treating an mammary adenocarcinoma cells (MCF-7) is assessed. […] The animal's weight is measured every 4 days. Tumor growth starting on the first day of treatment is measured and the volume of the xenograft is monitored every 4 days. […] Tumor tissue is excised from the mice and its weight is measured. […]

[1] = system: Detroit skin, Hfl fetal lung, and MRC-5 fetal lung fibroblast cell lines; test: MTT survival of normal fibroblast cells after α-enolase silencing; assay type: cell-based; conditions: relative to mock or control siRNA
Protocol: Detroit skin, Hfl fetal lung, and MRC-5 fetal lung fibroblast cell lines were treated with α-enolase-targeted siRNA as described in Example 5.

α-enolase siRNA: siRNA duplex targeting human α-enolase mRNA; sense 5′-GGCUGUUGAGCACAUCAAUtt-3′ (SEQ ID NO: 1), antisense SEQ ID NO: 2; Ambion (antisense AUUGAUGUGCUCAACAGCC; bought from Ambion, sense has tt overhang, further chemistry not given here)
cell viability after siRNA alone (A549 cells): decreased the viability | reduction of α-enolase expression (α-enolase; six days post-transfection): 90% | reduction of α-enolase expression (α-enolase; three days post-transfection): 77% | α-enolase expression (α-enolase; Detroit fibroblast cells, three days of treatment): significant down-regulation | α-enolase level relative to control transfected cells (α-enolase; MDA-435 cells, 6 days post-transfection): 14% | decrease of levels of expression of α-enolase (α-enolase; six days): 92% | decrease of levels of expression of α-enolase (α-enolase; three days): 67% | decrease of α-enolase protein expression (α-enolase; variety of cell lines): 50-80% | total cell number in tumors vs control siRNA (MCF-7/ADR xenografts): lower | tumor weight vs control siRNA (MCF-7/ADR xenografts): smaller tumors by weight | survival of normal fibroblast cells [1]: no effect on survival
